Test system: SK-MEL-3 cells
Assay: SK-MEL-3 cell proliferation assay
Format: cell-based
Conditions: Homo sapiens, SK-MEL3; SK-MEL-3 cells, 72 hours, CellTiter-Glo; read-out: SK-MEL-3 IC50

First: Cc1ccc(-c2ccc3nc4[nH]c(=O)[nH]c4cc3c2Cl)cc1 [Example 1, 8-chloro-7-(p-tolyl)-1,3-dihydro-2H-imidazo[4,5-b]quinolin-2-one]
Second: Cc1ccc(-c2ccc3nc4c(cc3c2Cl)CC(=O)N4)cc1 [Example 2, 5-chloro-6-(p-tolyl)-1,3-dihydropyrrolo[2,3-b]quinolin-2-one]
The IC50 of the first is 95-fold lower: 0.4 nM for the first, 37.9 nM for the second. The first is the more potent here.

Compared with `Cc1cc(F)ccc1-c1ccc2nc3[nH]c(=O)[nH]c3cc2c1` [Example 4, 7-(4-fluoro-2-methylphenyl)-1,3-dihydro-2H-imidazo[4,5-b]quinolin-2-one], `COc1cc(F)ccc1-c1ccc2nc3[nH]c(=O)[nH]c3cc2c1` [Example 6, 7-(4-fluoro-2-methoxyphenyl)-1,3-dihydro-2H-imidazo[4,5-b]quinolin-2-one] is 2.1-fold higher in IC50: 1.7 nM for the first, 3.6 nM for the second. The first is the more potent here.

`O=c1[nH]c2cc3cc(-c4ccc(F)cc4C(F)(F)F)ccc3nc2[nH]1` [Example 5, 7-(4-fluoro-2-(trifluoromethylphenyl))-1,3-dihydro-2H-imidazo[4,5-b]quinolin-2-one] and `Cc1ccc(-c2ccc3nc4[nH]c(=O)[nH]c4cc3c2)c(Cl)c1` [Example 25, 7-(2-chloro-4-methylophenyl)-1,3-dihydro-2H-imidazo[4,5-b]quinolin-2-one] are within 1.5-fold of each other in IC50: 2.8 nM for the first, 2.9 nM for the second.

`COc1ccc(-c2ccc3nc4[nH]c(=O)[nH]c4cc3c2)c(Cl)n1` [Example 7, 7-(2-chloro-6-methoxypyridin-3-yl)-1,3-dihydro-2H-imidazo[4,5-b]quinolin-2-one] and `O=c1[nH]c2cc3cc(-c4ccc(Cl)nc4Cl)ccc3nc2[nH]1` [Example 18, 7-(2,6-dichloropyridin-3-yl)-1,3-dihydro-2H-imidazo[4,5-b]quinolin-2-one] are within 1.5-fold of each other in IC50: 0.4 nM for the first, 0.6 nM for the second.

`COc1cc(Cl)c(-c2ccc3nc4[nH]c(=O)[nH]c4cc3c2)cn1` [Example 8, 7-(4-chloro-6-methoxypyridin-3-yl)-1,3-dihydro-2H-imidazo[4,5-b]quinolin-2-one] and `O=c1[nH]c2cc3cc(-c4ncc(F)cc4Cl)ccc3nc2[nH]1` [Example 10, 7-(3-chloro-5-fluoropyridin-2-yl)-1,3-dihydro-2H-imidazo[4,5-b]quinolin-2-one] are within 1.5-fold of each other in IC50: 2.1 nM for the first, 1.8 nM for the second.

Going from `O=c1[nH]c2cc3cc(-c4ccc(F)cc4)ccc3nc2[nH]1` [Example 9, 7-(4-fluorophenyl)-1,3-dihydro-2H-imidazo[4,5-b]quinolin-2-one] to `Nc1cc(-c2ccc3nc4[nH]c(=O)[nH]c4cc3c2)ccn1` [Example 26, 7-(2-aminopyridin-4-yl)-1,3-dihydro-2H-imidazo[4,5-b]quinolin-2-one], the IC50 rises from 1.7 nM to 74.6 nM (44-fold). The first is the more potent here.

First: O=c1[nH]c2cc3cc(-c4cnn(C(F)F)c4)ccc3nc2[nH]1 [Example 11, 7-(1-(difluoromethyl)-1H-pyrazol-4-yl)-1,3-dihydro-2H-imidazo[4,5-b]quinolin-2-one]
Second: O=c1[nH]c2cc3cc(-c4cnn(C(F)(F)F)c4)ccc3nc2[nH]1 [Example 29, 7-(1-(trifluoromethyl)-1H-pyrazol-4-yl)-1,3-dihydro-2H-imidazo[4,5-b]quinolin-2-one]
The IC50 of the first is 8.2-fold lower: 0.8 nM for the first, 6.6 nM for the second. The first is the more potent here.

First: O=c1[nH]c2cc3cc(-c4cn(C(F)F)nc4Cl)ccc3nc2[nH]1 [Example 12, 7-(3-chloro-1-(difluoromethyl)-1H-pyrazol-4-yl)-1,3-dihydro-2H-imidazo[4,5-b]quinolin-2-one]
Second: O=c1[nH]c2cc3cc(-c4c(Cl)cnn4C(F)F)ccc3nc2[nH]1 [Example 16, 7-(4-chloro-1-(difluoromethyl)-1H-pyrazol-5-yl)-1,3-dihydro-2H-imidazo[4,5-b]quinolin-2-one]
The IC50 of the first is 5.3-fold lower: 0.3 nM for the first, 1.6 nM for the second. The first is the more potent here.

Compared with `Nc1ccc(-c2ccc3nc4[nH]c(=O)[nH]c4cc3c2)c(Cl)n1` [Example 19, 7-(6-amino-2-chloropyridin-3-yl)-1,3-dihydro-2H-imidazo[4,5-b]quinolin-2-one], `O=c1[nH]c2cc3c(nc2[nH]1)CCN(c1ccccc1)C3` [Example 20, 7-phenyl-1,3,5,6,7,8-hexahydro-2H-imidazo[4,5-b][1,6]naphthyridin-2-one] is 2.6-fold higher in IC50: 1.7 nM for the first, 4.5 nM for the second.

— US20260265251A1 (priority 2023, published 2026)
